Results: patent US10941063B2 (priority 2015, dated 2021)
“Also recorded” adds a separate entry of the source. Like-named read-outs stand apart in the source and are kept apart here.

Key:
[1] = for time until ORP rose above 100 mV indicating H2S fully oxidized: 80 mg/L H2S water
Protocol: Hydrogen peroxide is an inexpensive oxidant for H2S removal, but is slow acting relative to several other oxidants. Shortening the reaction time or contact time required in a water treatment process reduces the volume of contact basins or increases the throughput of a treatment process such as that described in Example 17.
A portion of the 80 mg/L H2S water was treated by mixing into it a 17% wt/wt solution of hydrogen peroxide such that the molar ratio of hydrogen peroxide to sulfide was about 5.7:1. Hydrogen peroxide was added in excess such that it was not a limiting reagent in the oxidation reaction. The ORP and pH of the water was monitored to track the oxidation rate of H2S. FIG. 3 depicts the progression of ORP and pH over time during oxidation.
A second portion of the 80 mg/L H2S water was treated by mixing into it a 17% wt/wt solution of hydrogen peroxide such that the molar ratio of hydrogen peroxide to sulfide was about 5.7:1. A small portion of muriatic acid (about 34% hydrochloric acid solution) was added with the hydrogen peroxide to slightly lower the pH to between 6.5 and 7.0 thereby converting at least a portion of the NaHS to H2S and accelerate the reaction rate. FIG. 4 depicts the progression of ORP and pH over time during oxidation.

Total bacteria = assay: Removal of bacteria from high H2S water, Luminultra ATP test method (Example 17); type: cell-based
Protocol: A high H2S water sample near Odessa, Tex., USA was tested for H2S and bacteria removal.
A 600 mL portion of the water was transferred by siphon pump to a 1 L beaker outfitted with a magnetic stir bar, pH probe, ORP probe and a sealed cover with a small opening for adding chemicals. The solution was mixed at a moderate rate at room temperature using a magnetic stir plate while a 17% hydrogen peroxide solution was added in a 1.9:1 molar ratio of oxidant to sulfide to remove about 80% of the H2S. […] After 10 minutes of reaction time aluminum coagulant and anionic flocculation polymer dispersion were added causing a rapid flocculation and settling of most of the pale yellow solids. The clarified supernatant was decanted to a second beaker outfitted the same as the first.
A 500 mL portion of the supernatant above was mixed while a 2.1% sodium peracetate solution was added in a 1.6:1 molar ratio of oxidant to sulfide to remove the remaining 20% of the H2S and promote a final clarification and bacteria removal. […] After 10 minutes of reaction time aluminum coagulant and anionic flocculation polymer dispersion were added causing a rapid flocculation and settling of the pale solids.

[2] = tested on: acid producing bacteria (APB); assay: Uintah basin produced water: acid producing bacteria level; type: cell-based; conditions: for APB: untreated 100-1000
Protocol: (§1) Produced water from the Uintah basin in eastern Utah was tested for sulfide treatment and clarification with sodium peracetate solution. The untreated water appeared green-grey in color, was pH 8.1 and contained about 30 mg/L H2S (as S^2), 90 mg/L organic or other sulfides (as S^2−), and 90 mg/L sulfate. Total iron was about 5 mg/L therefore iron sulfide was only a minor sulfide component.
(§2) A first water sample was treated by a “partial oxidation” in Table II with sodium peracetate oxidant solution. The water was stirred in a closed container while sodium peracetate oxidant was added in a 1.25:1 molar ratio of oxidant to H2S. Aluminum coagulant (about 35 mg/L as Al) was added with the oxidant. The mixture was stirred for 30 seconds and then about 5 mg/L of anionic polymer was added. Large floe formed rapidly over the next 60 seconds and then stirring was stopped. The flocculated solids settled rapidly leaving a clear, colorless supernatant. The “partial oxidation” treatment removed hydrogen sulfide and reduced acid producing bacteria (APB) and sulfate reducing bacteria (SRB) levels to 1-10 cells/mL for each. The ORP increased from −166 mV to 88 mV vs SHE (oxidant was fully consumed) and there was a 20 ppm increase in sulfate concentration due to oxidation of a small portion of sulfur-containing contaminants to sulfate.
(§3) A second water sample was treated by a “full oxidation” in Table II with sodium peracetate oxidant solution. The water was stirred in a closed container while sodium peracetate oxidant was added in a 3.8:1 molar ratio of oxidant to H2S. Aluminum coagulant (about 35 mg/L as Al) was added with the oxidant. The mixture was stirred for 30 seconds and then about 5 mg/L of anionic polymer was added. Large floe formed rapidly over the next 60 seconds and then stirring was stopped. The flocculated solids settled rapidly leaving a clear, colorless supernatant. […]

[3] = tested on: sulfate reducing bacteria (SRB); assay: Uintah basin produced water: sulfate reducing bacteria level; type: cell-based; conditions: for SRB: untreated 10-100
Protocol: as §1, §2, §3

[4] = Stability of sodium peracetate oxidant solution (half-life, loss of active oxidant); type: physicochemical
Excerpt: However, the sodium peracetate oxidant solutions were discovered to be stable enough, when diluted to below 1% concentration, to have a working time practical for producing large volumes of treatment fluids in a tank for down-hole well treatment applications including hydrogen sulfide mitigation, bacteria reduction, iron sulfide scale cleaning and polymer gel breaking.
In some embodiments, to conduct a well treatment a large, diluted volume of sodium peracetate oxidant solution is preferably staged in a carrier fluid having no oxidant demand. The carrier fluid may include fresh water, salt water, treated production water and, optionally, combined with other treatment chemicals such as hydrochloric acid, citric acid, acetic acid, acid-containing micellar solvent, corrosion inhibitor, and iron chelant. Lower concentrations, less than 1%, of sodium peracetate oxidant may be staged for a limited period of time with small losses in active oxidant. For example, a 0.25% solution is expected to lose about 4-6% of its active sodium peracetate per hour at 20° C. A container, tank or tanker truck of sodium peracetate solution must be vented to release oxygen gas byproduct evolved from the oxidant as it naturally degrades in a carrier fluid.
In this example a diluted sodium peracetate oxidant solution is staged in 500 barrel (21,000 gal) quantities produced in a 55 minute period. […]

[5] = tested on: naturally occurring microbes; assay: Preservation of guar mixture against microbial growth; type: cell-based; conditions: about 65 mg/L oxidant, at least a week at room temperature
Protocol: The use of the sodium peracetate oxidant formulation was tested for the depolymerization and break down of guar gum.
The guar mixture was made by rapidly mixing 10 g/L food grade guar gum powder into a 10 g/L sodium chloride solution in distilled water. The blended mixture was heated to about 35-40° C. in a heated water bath for at least one hour to fully hydrate the guar. The mixture appeared translucent with fine, milky white suspended solids. […] Several 60 mL portions of the guar mixture were prepared for different treatments as summarized in Table I. The first was a control sample to which no oxidant was added. The remaining samples had increasing amounts of sodium peracetate oxidant added to them. […] The oxidant was rapidly mixed with the guar mixture resulting in a pale yellow color. The mixtures were placed in a water bath at about 35-40° C. and the yellow color gradually faded away over the next hour. After two hours the samples were cooled to room temperature.
The control sample remained viscous for a day, but lost viscosity after sitting at room temperature overnight and microbial growth as a biofilm was visible after a week. […] The fine, suspended solids settled out leaving a clear, colorless solution. A second treatment of the last sample reduced the viscosity further by a small amount.

[6] = 7% sodium peracetate solution in clean water; cited from earlier work
[7] = Treated Water Full Oxidation (3.8:1)
[8] = Treated Water Partial Oxidation (1.25:1)
[9] = full oxidation (3.8:1), after 4 months at room temperature

Compound | time until ORP rose above 100 mV indicating H2S fully oxidized ([1]; 17% wt/wt hydrogen peroxide, 5.7:1 molar to sulfide, no acid) | time until ORP rose above 100 mV indicating H2S fully oxidized ([1]; hydrogen peroxide 5.7:1 with muriatic acid, pH between 6.5 and 7.0) | rate of H2S oxidation when acid was added with the oxidant ([1]; hydrogen peroxide 5.7:1 with muriatic acid versus without) | ATP and corresponding bacteria population reduced by (Total bacteria; first step: hydrogen peroxide 1.9:1, then coagulant and polymer) | ATP concentration in supernatant (Total bacteria; first step: hydrogen peroxide 1.9:1, then coagulant and polymer, untreated 280 pg/mL) [pg/mL] | APB [2, 7] [cells/mL] | APB [2, 8] | grow back of APB [2, 9] | SRB [3, 7] [cells/mL] | SRB [3, 8] | grow back of SRB [3, 9] | loss of active oxidant concentration ([4]; 0.2% diluted solution, in 55 minutes at 25° C.) [%] | loss of active sodium peracetate per hour ([4]; 0.25% solution, 20° C.) | ATP and corresponding bacteria population reduced by, relative to the untreated water (Total bacteria; after second step: sodium peracetate 1.6:1 following hydrogen peroxide step) [%] | ATP concentration in supernatant (Total bacteria; second step: sodium peracetate 1.6:1 after hydrogen peroxide step) [pg/mL] | microbial growth in guar mixture (preservative effect) [5] | half-life [6]
OO [hydrogen peroxide] | about 22 minutes | about 9 minutes | approximately doubled | about 95% | 14 | – | – | – | – | – | – | – | – | – | – | – | –
sodium peracetate [sodium peracetate oxidant solution] | – | – | – | – | – | <1 | 1-10 cells/mL | no detectable grow back | <1 | 1-10 cells/mL | no detectable grow back | ~4 | 4-6% | 99 | 3 | did act as a preservative; also recorded: no microbial growth was observed | about 80 minutes
